Test results as given in patent US11248016B2, “Glycolipids and pharmaceutical compositions thereof for use in therapy” (THE UNIVERSITY OF NOTTINGHAM, priority 2014, dated 2022).

Assays:
[1] = test system: primary canine histocytic sarcoma tumour cells; assay: Primary canine tumour cell experiments; type: cell-based, dog; settings: Cisplatin (10 μM) plus Formula II, 6 days
Protocol: Cells were cultured for 6 days with a single dose treatment of Cisplatin™ (10 μM) or a combination of Cisplatin™ plus a compound of Formula II (active). Images were taken after 6 days treatment and are representative of three independently treated wells. Each image (40× magnification) represents the majority of the well area and is of an equivalent area in each photograph.
(§1) Known inhibitors of protein synthesis such as hippuristanol have proven potent anti-cancer properties when used in combination with chemotherapeutic agents such as Cisplatin™ or Doxorubicin™. However hippuristanol is naturally found in coral to is scarce and expensive to obtain, furthermore it is very difficult and expensive to synthesise. […] In particular this combination has a potent effect at slowing proliferation or killing cancer cells. Slow growing and difficult to treat tumour cell types such as A549 lung cancer cells, SH-SY5Y neuroblastoma or SKOV-3 cancer cells are all sensitised by exposure to Formula II to very low doses of Cisplatin™ (FIGS. 4d, 4e, 4f and 7)—a complete kill can be achieved in both A549 and SH-SY5Y cells after a single dose treatment with g quantities of a compound of Formula II in combination with 1 μM or 2.5 μM treatments of Cisplatin™. […]

[2] = test system: SKOV3 ovarian cancer cells; assay: Cell proliferation, SKOV3; type: cell-based; settings: 96 hours
Protocol: Growth of SKOV3 cell lines were slowed by the treatment with a compound of Formula II at higher doses. Experiment represents 6 biological repetitions, Error=S.E.M.
Cisplatin™ resistant SKOV-3 ovarian cancer cells were sensitised to treatment with a compound of Formula II in combination with 2.5 μM Cisplatin™ (p=0.003) (right hand bar in the figure), no effect is observed from treatment with equivalent levels of a compound of Formula II alone (left hand bar in the figure) or Cisplatin™ alone.
Prior to treatment cells were cultured to an appropriate confluency in 96 well tissue culture plates (Fisher). Cells remained either supplemented with fresh media or treated with fresh media containing active or an equivalent volume of DMSO (vehicle control). Where used, Cisplatin™ was diluted to a stock concentration in Dimethylformamide (DMF), then handled as per the manufacturer's instructions. To determine relative cell viability, reagents WST-1 (Roche) or MTT (Sigma) were used as per the manufacturer's instructions and absorbance at 450 nm measured using a Victor plate reader (Perkin Elmer).

white blood cells = assay: White blood cells in the primary canine tissue sample; type: cell-based; settings: seen under the microscope, 6 days
Text: as §1, with “Cisplatin™. A similar effect is observed when rapidly growing tumour cell lines or primary tumour cells (FIG. 8) are treated with a compound of Formula II and chemotherapeutics such as Cisplatin™. In this example primary tumour cells were isolated from a dog and then in vitro exposed to the compound of Formula II and Cisplatin™.” for “Cisplatin™.”

[3] = test system: Neuroblastoma cells (SH-SY5Y); assay: Polysome profiling (sucrose density); type: cell-based, human
Protocol: Established techniques such as polysome profiling were used to show a reduction in the number of polyribosomes in neuroblastoma cells after treatment with a compound of Formula II. Polysome peaks from left to right show increasing number of ribosomes associated with mRNA. This peaks at 3 ribosomes after treatment with a compound of Formula II showing rapid and reproducible perturbation of translation. Cells were treated for 20 minutes with a compound of Formula II then harvested and prepared as described in materials and methods. The supernatants were loaded onto 10-50% sucrose gradients and spun for 2 hrs at 38,000 RPM. Gradients were visualised using a UV detector.
The number of ribosomes is indicative of the translation of an mRNA and synthesis of the protein encoded by the mRNA, and treatment with the compound of Formula II decreases the number of ribosomes per message thereby reducing global protein synthesis.
Polysome profiles were obtained using sucrose density centrifugation. Briefly one 15 cm plate of cultured Neuroblastoma cells (SH-SY5Y) were grown per treatment to a confluency of 70%. Cells were then treated with either active or equivalent DMSO vehicle control for 20 min. […] Gradients were fractionated and polysome profiles determined through a continuous monitoring at absorbance 260 nm (described previously Johannes et al. 1999).

Q: What does the source list for `CC/C=C\C/C=C\C/C=C\CCCCCCCC(=O)OC[C@H](COC1OC(CO)C(O)C(O)C1O)OC(=O)CCCCCCC/C=C\C/C=C\C/C=C\CC` (stereo partly drawn) [Formula II, 1,2-dioctadecatienyl-3-O-β-D-galactosyl-sn-glycerol]?
A: canine tumour cells after Cisplatin plus Formula II [1]: substantially all tumour cells were killed; growth of SKOV3 cells ([2]; Formula II only, at higher doses): slowed; effect on SKOV-3 cells, compound alone ([2]; equivalent levels of Formula II alone, FIG. 4f): no effect; sensitisation of SKOV-3 cells to Cisplatin ([2]; in combination with 2.5 μM Cisplatin (p=0.003)): sensitised; white blood cells after Cisplatin and Formula II treatment (white blood cells): still alive; polysome peak, number of ribosomes associated with mRNA ([3]; after treatment, 20 minutes): 3 ribosomes; amount of polyribosomes ([3]; cells treated for 20 minutes, 10-50% sucrose gradients): reduction in the amount of polyribosomes
